Read-outs that look alike come from different tables or passages of the source.
Molecular target: BTK (Homo sapiens (Human), UniProt Q06187)
Experiment: Btk in vitro inhibitory activity (one of Method A TR-FRET, Method B electrophoretic mobility shift, Method C radiometric filter binding)
Format: biochemical
[1] = determined using one of the methods of Example 355a, 355b and 355c, read-out: BTK IC50

Sequence of BTK (Q06187 whole entry): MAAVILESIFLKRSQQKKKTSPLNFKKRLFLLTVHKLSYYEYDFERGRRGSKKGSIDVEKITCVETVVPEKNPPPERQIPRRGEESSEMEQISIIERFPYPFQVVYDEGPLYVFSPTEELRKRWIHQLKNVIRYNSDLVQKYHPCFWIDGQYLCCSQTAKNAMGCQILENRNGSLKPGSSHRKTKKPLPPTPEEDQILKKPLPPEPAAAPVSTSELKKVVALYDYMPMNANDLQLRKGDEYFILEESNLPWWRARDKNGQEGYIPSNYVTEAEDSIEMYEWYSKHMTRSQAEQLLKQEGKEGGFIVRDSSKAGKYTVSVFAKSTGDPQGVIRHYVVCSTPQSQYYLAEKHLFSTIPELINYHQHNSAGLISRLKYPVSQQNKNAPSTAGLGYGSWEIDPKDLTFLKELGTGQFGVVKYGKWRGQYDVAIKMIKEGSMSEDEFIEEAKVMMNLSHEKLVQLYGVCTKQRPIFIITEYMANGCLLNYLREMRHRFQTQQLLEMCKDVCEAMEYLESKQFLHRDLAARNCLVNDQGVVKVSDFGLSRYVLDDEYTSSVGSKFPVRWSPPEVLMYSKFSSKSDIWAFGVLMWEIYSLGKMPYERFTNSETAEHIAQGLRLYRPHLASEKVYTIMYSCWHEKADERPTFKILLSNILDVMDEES

SMILES	IC50 [1] [nM]	IC50 (Btk (IC50)) [nM]	IC50 (read-out: Btk (IC50)) [nM]
CC(C)(C)OC(=O)N1CCC[C@@H](Nc2nnc(C(N)=O)c(Nc3ccc(C(=O)N4CCOCC4)cc3)n2)C1 [Example 60, (R)-tert-butyl 3-(6-carbamoyl-5-(4-(morpholine-4-carbonyl)phenylamino)-1,2,4-triazin-3-ylamino)piperidine-1-carboxylate]	100 to 1000		
NC(=O)c1nnc(N[C@@H]2CCCNC2)nc1Nc1ccc(C(=O)N2CCOCC2)cc1 [Example 61, (R)-5-(4-(morpholine-4-carbonyl)phenylamino)-3-(piperidin-3-ylamino)-1,2,4-triazine-6-carboxamide]	1000 to 10000		
CC(C)(C)OC(=O)N1CC[C@@H](Nc2nnc(C(N)=O)c(Nc3ccc(C(=O)N4CCOCC4)cc3)n2)C1 [Example 68, (R)-tert-butyl 3-(6-carbamoyl-5-(4-(morpholine-4-carbonyl)phenylamino)-1,2,4-triazin-3-ylamino)pyrrolidine-1-carboxylate]	100 to 1000		
CN(C/C=C/C(=O)N1CC[C@@H](Nc2nnc(C(N)=O)c(Nc3ccc(C(=O)N4CCOCC4)cc3)n2)C1)C1CC1 [Example 71, (R,E)-3-(1-(4-(cyclopropyl(methyl)amino)but-2-enoyl)pyrrolidin-3-ylamino)-5-(4-(morpholine-4-carbonyl)phenylamino)-1,2,4-triazine-6-carboxamide]	10 to 100		
C=CC(=O)N1CCC[C@@H](N(C)c2cnc(C(N)=O)c(Nc3ccc(C(=O)N4CCOCC4)cc3)n2)C1 [Example 74, (R)-5-((1-acryloylpiperidin-3-yl)(methyl)amino)-3-(4-(morpholine-4-carbonyl)phenylamino)pyrazine-2-carboxamide]	< 10		< 10
CN(C)C/C=C/C(=O)N1CCC[C@@H](N(C)c2cnc(C(N)=O)c(Nc3ccc(C(=O)N4CCOCC4)cc3)n2)C1 [Example 75, (R,E)-5-((1-(4-(dimethylamino)but-2-enoyl)piperidin-3-yl)(methyl)amino)-3-(4-(morpholine-4-carbonyl)phenylamino)pyrazine-2-carboxamide]	< 10		
CC(C)(C)c1ccc(C(=O)N[C@@H]2CCCN(c3cnc(C(N)=O)c(Nc4ccc(C(=O)N5CCOCC5)cc4)c3)C2)cc1 [Example 76, (R)-5-(3-(4-tert-butylbenzamido)piperidin-1-yl)-3-(4-(morpholine-4-carbonyl)phenylamino)picolinamide]	100 to 1000		
Cc1cc(Nc2cc(N3CCC[C@@H](NC(=O)c4ccc(C(C)(C)C)cc4)C3)cnc2C(N)=O)sn1 [Example 77, (R)-5-(3-(4-tert-butylbenzamido)piperidin-1-yl)-3-(3-methylisothiazol-5-ylamino)picolinamide]	10 to 100		
CC(C)(C)c1ccc(NC(=O)N[C@@H]2CCCN(c3nnc(C(N)=O)c(Nc4ccc(C(=O)N5CCOCC5)cc4)n3)C2)cc1 [Example 79, (R)-3-(3-(3-(4-tert-butylphenyl)ureido)piperidin-1-yl)-5-(4-(morpholine-4-carbonyl)phenylamino)-1,2,4-triazine-6-carboxamide]	10 to 100	10 to 100	
COc1ccc(NC(=O)N[C@@H]2CCCN(c3nnc(C(N)=O)c(Nc4ccc(C(=O)N5CCOCC5)cc4)n3)C2)cc1 [Example 80, (R)-3-(3-(3-(4-methoxyphenyl)ureido)piperidin-1-yl)-5-(4-(morpholine-4-carbonyl)phenylamino)-1,2,4-triazine-6-carboxamide]	10 to 100	10 to 100	
CN(C)C(=O)N[C@@H]1CCCN(c2nnc(C(N)=O)c(Nc3ccc(C(=O)N4CCOCC4)cc3)n2)C1 [Example 81, (R)-3-(3-(3,3-dimethylureido)piperidin-1-yl)-5-(4-(morpholine-4-carbonyl)phenylamino)-1,2,4-triazine-6-carboxamide]	10 to 100	10 to 100	
CC(C)C1CCN(C(=O)N[C@@H]2CCCN(c3nnc(C(N)=O)c(Nc4ccc(C(=O)N5CCOCC5)cc4)n3)C2)CC1 [Example 82, (R)-3-(3-(4-isopropylpiperidine-1-carboxamido)piperidin-1-yl)-5-(4-(morpholine-4-carbonyl)phenylamino)-1,2,4-triazine-6-carboxamide]	10 to 100	10 to 100	
NC(=O)c1nnc(N2CCC[C@@H](NC(=O)C(=O)N3CCCCC3)C2)nc1Nc1ccc(C(=O)N2CCOCC2)cc1 [Example 83, (R)-5-(4-(morpholine-4-carbonyl)phenylamino)-3-(3-(2-oxo-2-(piperidin-1-yl)acetamido)piperidin-1-yl)-1,2,4-triazine-6-carboxamide]	100 to 1000	100 to 1000	
NC(=O)c1nnc(N2CCC[C@@H](NC(=O)c3ccc4ccccc4n3)C2)nc1Nc1ccc(C(=O)N2CCOCC2)cc1 [Example 84, (R)—N-(1-(6-carbamoyl-5-(4-(morpholine-4-carbonyl)phenylamino)-1,2,4-triazin-3-yl)piperidin-3-yl)quinoline-2-carboxamide]	10 to 100	10 to 100	
NC(=O)c1nnc(N2CCC[C@@H](NC(=O)c3ccc4ncccc4c3)C2)nc1Nc1ccc(C(=O)N2CCOCC2)cc1 [Example 85, (R)—N-(1-(6-carbamoyl-5-(4-(morpholine-4-carbonyl)phenylamino)-1,2,4-triazin-3-yl)piperidin-3-yl)quinoline-6-carboxamide]	10 to 100	10 to 100	
NC(=O)c1nnc(N2CCC[C@@H](NC(=O)c3ccc(OCC(F)(F)F)cc3)C2)nc1Nc1ccc(C(=O)N2CCOCC2)cc1 [Example 86, (R)-5-(4-(morpholine-4-carbonyl)phenylamino)-3-(3-(4-(2,2,2-trifluoroethoxy)benzamido)piperidin-1-yl)-1,2,4-triazine-6-carboxamide]			< 10
CCOc1ccc(C(=O)N[C@@H]2CCCN(c3nnc(C(N)=O)c(Nc4ccc(C(=O)N5CCOCC5)cc4)n3)C2)cc1 [Example 88, (R)-3-(3-(4-ethoxybenzamido)piperidin-1-yl)-5-(4-(morpholine-4-carbonyl)phenylamino)-1,2,4-triazine-6-carboxamide]	< 10		< 10
CCCOc1ccc(C(=O)N[C@@H]2CCCN(c3nnc(C(N)=O)c(Nc4ccc(C(=O)N5CCOCC5)cc4)n3)C2)cc1 [Example 89, (R)-5-(4-(morpholine-4-carbonyl)phenylamino)-3-(3-(4-propoxybenzamido)piperidin-1-yl)-1,2,4-triazine-6-carboxamide]	< 10		< 10
CC(C)Oc1ccc(C(=O)N[C@@H]2CCCN(c3nnc(C(N)=O)c(Nc4ccc(C(=O)N5CCOCC5)cc4)n3)C2)cc1 [Example 90, (R)-5-(4-(morpholine-4-carbonyl)phenylamino)-3-(3-(4-isopropoxybenzamido)piperidin-1-yl)-1,2,4-triazine-6-carboxamide]	10 to 100		10 to 100
Cc1cc(C(=O)N[C@@H]2CCCN(c3nnc(C(N)=O)c(Nc4ccc(C(=O)N5CCOCC5)cc4)n3)C2)no1 [Example 91, (R)—N-(1-(6-carbamoyl-5-(4-(morpholine-4-carbonyl)phenylamino)-1,2,4-triazin-3-yl)piperidin-3-yl)-5-methylisoxazole-3-carboxamide]	10 to 100	10 to 100	

Continued, in another order:

IC50 [1] [nM]	IC50 (Btk (IC50)) [nM]	SMILES	IC50 (read-out: Btk (IC50)) [nM]
10 to 100		NC(=O)c1nnc(N2CCC[C@@H](NC(=O)N3CCOCC3)C2)nc1Nc1ccc(-c2ncco2)cc1 [Example 59, (R)—N-(1-(6-carbamoyl-5-(4-(oxazol-2-yl)phenylamino)-1,2,4-triazin-3-yl)piperidin-3-yl)morpholine-4-carboxamide]	
10 to 100		CC(C)(C)c1ccc(C(=O)N2CCC[C@@H](Nc3nnc(C(N)=O)c(Nc4ccc(C(=O)N5CCOCC5)cc4)n3)C2)cc1 [Example 62, (R)-3-(1-(4-tert-butylbenzoyl)piperidin-3-ylamino)-5-(4-(morpholine-4-carbonyl)phenylamino)-1,2,4-triazine-6-carboxamide]	
< 10		CCC(=O)N1CCC[C@@H](Nc2nnc(C(N)=O)c(Nc3ccc(C(=O)N4CCOCC4)cc3)n2)C1 [Example 63, (R)-5-(4-(morpholine-4-carbonyl)phenylamino)-3-(1-propionylpiperidin-3-ylamino)-1,2,4-triazine-6-carboxamide]	
< 10		NC(=O)c1nnc(N[C@@H]2CCCN(C(=O)C3CC3)C2)nc1Nc1ccc(C(=O)N2CCOCC2)cc1 [Example 64, (R)-3-(1-(cyclopropanecarbonyl)piperidin-3-ylamino)-5-(4-(morpholine-4-carbonyl)phenylamino)-1,2,4-triazine-6-carboxamide]	
< 10		C=CC(=O)N1CCC[C@@H](Nc2nnc(C(N)=O)c(Nc3ccc(C(=O)N4CCOCC4)cc3)n2)C1 [Example 65, (R)-3-(1-acryloylpiperidin-3-ylamino)-5-(4-(morpholine-4-carbonyl)phenylamino)-1,2,4-triazine-6-carboxamide]	
< 10		CN(C)C/C=C/C(=O)N1CCC[C@@H](Nc2nnc(C(N)=O)c(Nc3ccc(C(=O)N4CCOCC4)cc3)n2)C1 [Example 66, (R,E)-3-(1-(4-(dimethylamino)but-2-enoyl)piperidin-3-ylamino)-5-(4-(morpholine-4-carbonyl)phenylamino)-1,2,4-triazine-6-carboxamide]	
< 10		CN(C/C=C/C(=O)N1CCC[C@@H](Nc2nnc(C(N)=O)c(Nc3ccc(C(=O)N4CCOCC4)cc3)n2)C1)C1CC1 [Example 67, (R,E)-3-(1-(4-(cyclopropyl(methyl)amino)but-2-enoyl)piperidin-3-ylamino)-5-(4-(morpholine-4-carbonyl)phenylamino)-1,2,4-triazine-6-carboxamide]	
10 to 100		NC(=O)c1nnc(N[C@@H]2CCNC2)nc1Nc1ccc(C(=O)N2CCOCC2)cc1 [Example 69, (R)-5-(4-(morpholine-4-carbonyl)phenylamino)-3-(pyrrolidin-3-ylamino)-1,2,4-triazine-6-carboxamide]	
< 10		CC(C)(C)c1ccc(C(=O)N[C@@H]2CCCN(c3cnc(C(N)=O)c(Nc4ccc(C(=O)N5CCOCC5)cc4)n3)C2)cc1 [Example 73, (R)-5-(3-(4-tert-butylbenzamido)piperidin-1-yl)-3-(4-(morpholine-4-carbonyl)phenylamino)pyrazine-2-carboxamide]	
